Test results reported in ChEMBL document CHEMBL1131275, “Synthesis and structure-activity relationships of CP-122,721, a second-generation NK-1 receptor antagonist” (Bioorg Med Chem Lett, 1998).

Columns and labels:
[1] = organism: Cavia porcellus; assay: Compound tested for SP-induced plasma extravasation in guinea pig perorally; format: functional; details: po, read-out: ID50 (the source's name)
[2] = organism: Cavia porcellus; assay: Inhibition of aerosolized capsaicin-induced plasma protein extravasation in guinea pig lung by peroral dose; format: functional; details: read-out: ID50 (the source's name)
[3] = organism: Cavia porcellus; assay: Inhibition of capsaicin-induced plasma extravasation in guinea pig ureter by peroral dose; format: functional; details: po, read-out: ID50 (the source's name)
[4] = tested on: Cavia porcellus; assay: Compound was tested for blockade of locomotor activity in guinea pig, elicited by icv administered Sar9Met(O2)-SP; format: functional; details: central, read-out: ID50 (the source's name)
[5] = organism: Cavia porcellus; assay: Compound tested for blockade of cisplatin-induced emesis in guinea pig perorally; format: functional; details: po, read-out: ID50 (the source's name)
[6] = molecular target: Substance-P receptor (Homo sapiens, UniProt P25103); assay: Antagonist activity for Tachykinin receptor 1 as displacement of [3H]-Substance P in human IM-9 cells; format: functional, cell-based
Substance-P receptor, sequence (P25103 whole entry): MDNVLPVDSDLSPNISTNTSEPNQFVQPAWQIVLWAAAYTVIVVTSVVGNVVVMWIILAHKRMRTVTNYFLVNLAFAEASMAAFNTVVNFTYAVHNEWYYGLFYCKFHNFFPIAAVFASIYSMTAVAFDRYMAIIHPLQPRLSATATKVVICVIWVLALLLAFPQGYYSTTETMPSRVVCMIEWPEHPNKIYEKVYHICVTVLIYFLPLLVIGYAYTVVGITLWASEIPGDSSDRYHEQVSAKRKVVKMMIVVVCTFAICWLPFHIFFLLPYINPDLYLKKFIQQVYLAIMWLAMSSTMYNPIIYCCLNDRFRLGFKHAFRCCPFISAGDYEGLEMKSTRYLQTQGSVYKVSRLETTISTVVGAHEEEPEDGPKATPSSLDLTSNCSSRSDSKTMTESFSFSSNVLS

[7] = organism: Cavia porcellus; assay: Inhibition of aerosolized capsaicin-induced plasma protein extravasation in guinea pig ureter by peroral dose; format: functional; details: read-out: ID50 (the source's name)
[8] = tested on: Cavia porcellus; assay: Compound was tested for blockade of locomotor activity in the guinea pig elicited by icv administered Sar9Met(O2)-SP; format: functional; details: central, read-out: ID50 (the source's name)

Compound	IC50 [6] [nM]	also measured
COc1ccc(OC(F)(F)F)cc1CN[C@H]1CCCN[C@H]1c1ccccc1	–	ED50 [1]: 0.05 mg/kg; ED50 [2]: 0.01 mg/kg; ED50 [3]: 0.02 mg/kg; ED50 [4]: 0.01 mg/kg; ED50 [5]: 0.08 mg/kg
CC(C)Oc1ccc(OC(F)(F)F)cc1CN[C@H]1CCCN[C@H]1c1ccccc1	0.18	–
FC(F)(F)Oc1ccccc1CN[C@H]1CCCN[C@H]1c1ccccc1	0.8	–
Oc1ccc(OC(F)(F)F)cc1CN[C@H]1CCCN[C@H]1c1ccccc1	10.9	–
COc1ccc(N(C)S(C)(=O)=O)cc1CN[C@H]1CCCN[C@H]1c1ccccc1	0.11	–
COc1ccc(Cl)cc1CN[C@H]1CCCN[C@H]1c1ccccc1	0.14	–
CCOc1ccc(OC(F)(F)F)cc1CN[C@H]1CCCN[C@H]1c1ccccc1	0.14	–
COc1ccc(OC)c(CN[C@H]2CCCN[C@H]2c2ccccc2)c1	0.09	–
CC(C)Oc1ccccc1CN[C@H]1CCCN[C@H]1c1ccccc1	0.46	–
FC(F)Oc1ccccc1CN[C@H]1CCCN[C@H]1c1ccccc1	0.41	–
COc1ccc(N(C)C)cc1CN[C@H]1CCCN[C@H]1c1ccccc1	0.56	–
COc1ccccc1CN[C@H]1CCCN[C@H]1c1ccccc1 [CP-99994]	–	ED50 [1]: 31 mg/kg; ED50 [2]: 5 mg/kg; ED50 [7]: 2.9 mg/kg; ED50 [8]: 0.6 mg/kg
